Consider 18 compounds from PubChem BioAssay AID248 (DTP/NCI, 2004).

This test deals with L1210 leukemia ip in BDF1 mice, survival T/C. Kind of test: NCI In Vivo Anticancer Drug Screen. Data for tumor model L1210 Leukemia (intraperitoneal) in B6D2F1 (BDF1) mice. To be noted: endpoint: mean survival time, higher = longer survival. A digest of the protocol: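 Transplantable tumor model; survival measured in treated vs vehicle control mice. Value = treated/control.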

Setting [1] is: dose: 100.0 mg/kg/injection, schedule: Q01DX001 (ip), vehicle: saline.
Where [2] appears, read: dose: 200.0 mg/kg/injection, schedule: Q01DX001 (ip), vehicle: saline.
[3] abbreviates: dose: 400.0 mg/kg/injection, schedule: Q01DX001 (ip), vehicle: saline.
The mark [4] stands for this setting: dose: 50.0 mg/kg/injection, schedule: Q01DX001 (ip), vehicle: saline.
Where [5] appears, read: dose: 25.0 mg/kg/injection, schedule: Q01DX009 (ip), vehicle: saline.
The mark [6] stands for this setting: dose: 50.0 mg/kg/injection, schedule: Q01DX009 (ip), vehicle: saline.
Where [7] appears, read: dose: 100.0 mg/kg/injection, schedule: Q04DX003 (ip), vehicle: saline.
The mark [8] stands for this setting: dose: 100.0 mg/kg/injection, schedule: Q04DX003 (ip), vehicle: saline with Tween-80.
Setting [9] is: dose: 100.0 mg/kg/injection, schedule: Q01DX001 (ip), vehicle: carboxymethylcellulose (CMC).
Where [10] appears, read: dose: 200.0 mg/kg/injection, schedule: Q01DX001 (ip), vehicle: carboxymethylcellulose (CMC).

“And” between values parts separate entries of the source, which are not always exact repeats. Identical values can stand only once. Inconclusive results and toxic doses are left out.

As for `Cc1cc(=O)c2cc(N)ccc2[nH]1`, the T/C is, setting by setting: (dose: 100.0 mg/kg/injection, schedule: Q01DX009 (ip), vehicle: water) 98 % of control; (dose: 100.0 mg/kg/injection, schedule: Q04DX003 (ip), vehicle: water) 107 % of control; (dose: 200.0 mg/kg/injection, schedule: Q01DX009 (ip), vehicle: water) 98 % of control; (dose: 200.0 mg/kg/injection, schedule: Q04DX003 (ip), vehicle: water) 113 % of control; (dose: 400.0 mg/kg/injection, schedule: Q01DX009 (ip), vehicle: water) 94 % of control; (dose: 400.0 mg/kg/injection, schedule: Q04DX003 (ip), vehicle: water) 116 % of control.
In the case of `O=C1OCc2ccccc2C1O` (stereo not drawn), the T/C is, setting by setting: under setting [1], 111 % of control; under setting [2], 94 % of control; under setting [3], 94 % of control.
Turning to `COc1ccc2ccc3ccc(OC)c(OC(C)=O)c3c2c1`, the T/C is, setting by setting: (dose: 100.0 mg/kg/injection, schedule: Q01DX001 (ip), vehicle: steriod suspending solution) 94 % of control; (dose: 200.0 mg/kg/injection, schedule: Q01DX001 (ip), vehicle: steriod suspending solution) 105 % of control; (dose: 400.0 mg/kg/injection, schedule: Q01DX001 (ip), vehicle: steriod suspending solution) 108 % of control.
Turning to `O=[N+]([O-])c1cccc2cccnc12`, the T/C is, setting by setting: under setting [4], 107 % of control; (dose: 50.0 mg/kg/injection, schedule: Q01DX009 (ip), vehicle: saline with Tween-80) 95 % of control; under setting [1], 107 % of control; (dose: 100.0 mg/kg/injection, schedule: Q01DX009 (ip), vehicle: saline with Tween-80) 93 % of control.
`C(/CCC/C=N/Nc1ccccc1)=N\Nc1ccccc1`: the T/C reads like this: under setting [4], 103 % of control; under setting [1], 100 % of control; under setting [2], 109 % of control; under setting [3], 100 % of control.
With `CN(N)P(=O)(c1ccccc1)N(C)N`, the T/C is, setting by setting: under setting [5], 103 % of control; (dose: 25.0 mg/kg/injection, schedule: Q04DX003 (ip), vehicle: saline) 101 % of control; under setting [6], 100 % of control; (dose: 50.0 mg/kg/injection, schedule: Q04DX003 (ip), vehicle: saline) 98 % of control; under setting [7], 104 % of control and 105 % of control.
Regarding `CCN(CC)c1ccc(N=Nc2ccc(S(=O)(=O)O)cc2)cc1`, the T/C is 97 % of control under setting [5]; 91 % of control under setting [6]; 88 % of control under setting [1]; 100 % of control (dose: 100.0 mg/kg/injection, schedule: Q01DX009 (ip), vehicle: saline).
In the case of `CCCCOC(=O)c1ccc(NC(=O)Nc2ccccc2)cc1`, the T/C runs as follows: (dose: 25.0 mg/kg/injection, schedule: Q04DX003 (ip), vehicle: saline with Tween-80) 101 % of control; (dose: 50.0 mg/kg/injection, schedule: Q04DX003 (ip), vehicle: saline with Tween-80) 93 % of control; under setting [8], 93 % of control and 97 % of control.
For the compound `CCCCSC1CCCC1`, the T/C was 98 % of control (dose: 50.0 mg/kg/injection, schedule: Q01DX009 (ip), vehicle: acetone); 89 % of control under setting [1]; 110 % of control (dose: 100.0 mg/kg/injection, schedule: Q01DX009 (ip), vehicle: acetone); 92 % of control under setting [2].
Regarding `Cc1cc(/C=N/N2CCN(/N=C/c3cc(C)n(-c4ccccc4)c3C)CC2)c(C)n1-c1ccccc1`, the T/C was 95 % of control under setting [9]; 88 % of control under setting [10]; 90 % of control (dose: 400.0 mg/kg/injection, schedule: Q01DX001 (ip), vehicle: carboxymethylcellulose (CMC)).
As to `C=CCNC(=O)Nc1cccc(O)c1`, the T/C was 100 % of control under setting [8]; 96 % of control (dose: 200.0 mg/kg/injection, schedule: Q04DX003 (ip), vehicle: saline with Tween-80); 93 % of control (dose: 400.0 mg/kg/injection, schedule: Q04DX003 (ip), vehicle: saline with Tween-80).
For `O=C(O)c1ccc2c(c1)C(=O)c1cc([N+](=O)[O-])ccc1-2`, the T/C runs as follows: under setting [9], 102 % of control; under setting [10], 102 % of control.
Turning to `CCc1c(Nc2ccc(C)cc2)[nH]c(N)nc1=S`, the T/C (dose: 200.0 mg/kg/injection, schedule: Q01DX Z (ip), vehicle: methylcellulose (MC)) was 89 % of control.
Turning to `NC(=S)N=Nc1c(O)n(C2OC(CO)C(O)C(O)C2O)c2ccccc12` (stereo not drawn), the T/C is 88 % of control (dose: 50.0 mg/kg/injection, schedule: Q01DX005 (ip), vehicle: saline) and 94 % of control (dose: 100.0 mg/kg/injection, schedule: Q01DX005 (ip), vehicle: saline).
On to `O=C(NC(C(=O)SC1=NC=NC2=NC=NC21)C(SC1=NC=NC2=NC=NC21)c1cccnc1)c1ccccc1` (stereo not drawn), for which the T/C (dose: 37.5 mg/kg/injection, schedule: Q01DX Z (ip), vehicle: saline) was 153 % of control.
`CCC(=O)N1CCOCC1`: the T/C was 102 % of control under setting [7]; 105 % of control (dose: 200.0 mg/kg/injection, schedule: Q04DX003 (ip), vehicle: saline); 98 % of control (dose: 400.0 mg/kg/injection, schedule: Q04DX003 (ip), vehicle: saline).
Consider `CN=C(N)NN`, for which the T/C was 102 % of control (dose: 30.0 mg/kg/injection, schedule: Q01DX Z (ip), vehicle: methylcellulose (MC)); 97 % of control (dose: 60.0 mg/kg/injection, schedule: Q01DX Z (ip), vehicle: methylcellulose (MC)); 105 % of control (dose: 120.0 mg/kg/injection, schedule: Q01DX Z (ip), vehicle: methylcellulose (MC)); 105 % of control (dose: 175.0 mg/kg/injection, schedule: Q01DX001 (ip), vehicle: saline); 98 % of control (dose: 240.0 mg/kg/injection, schedule: Q01DX Z (ip), vehicle: methylcellulose (MC)); 104 % of control (dose: 265.0 mg/kg/injection, schedule: Q01DX001 (ip), vehicle: saline). Moreover, the T/C is 111 % of control (dose: 375.0 mg/kg/injection, schedule: Q01DX Z (ip), vehicle: methylcellulose (MC)); 98 % of control under setting [3]; 107 % of control (dose: 480.0 mg/kg/injection, schedule: Q01DX Z (ip), vehicle: methylcellulose (MC)); 104 % of control (dose: 600.0 mg/kg/injection, schedule: Q01DX001 (ip), vehicle: saline).
For the compound `CCCN1CCC(C(=O)CC)(c2cccc(O)c2)CC1`, the T/C (dose: 100.0 mg/kg/injection, schedule: Q04DX002 (ip), vehicle: Klucel (hydroxypropylcellulose) (HPC)) is 106 % of control and the T/C (dose: 200.0 mg/kg/injection, schedule: Q04DX002 (ip), vehicle: Klucel (hydroxypropylcellulose) (HPC)) is 106 % of control.
